# What was measured:
# Myc/Max binding to DNA = Myc/Max binding to DNA (Homo sapiens, UniProt P01106); test: Electrophoretic mobility shift assay (EMSA) of Myc/Max binding to DNA; format: biochemical; conditions: for remaining activity at 100 µM: read-out: Bound DNA (%) (100uM); for remaining activity at 200 µM: 200 uM test compound, read-out: Bound DNA (%) (200uM); for remaining activity at 50 µM: 50 uM test compound, read-out: Bound DNA (%) (50uM)
# Method in brief: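 Electrophoretic mobility shift assay of Myc/Max binding to DNA. Compounds tested at 200 μM, 100 μM and 50 μM.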
# [1] = tested on: cMyc wild-type (WT) and a cMyc KO line; test: Cell viability assay against cMyc WT and cMyc KO line; format: cell-based; conditions: FIG. 4
# Procedure: Min9 (NUCC-0176234) was also tested in a cell viability assay against a cMyc wild-type (WT) and a cMyc KO line.
# [2] = tested on: DNA damage (rH2AX staining); test: rH2AX staining assay for DNA damage; format: cell-based
# Procedure: Min9 (NUCC-0176234) was also tested for its ability to cause DNA damage in an rH2AX staining assay. We would not expect cMyc-targeting agents to produce significant DNA damage. Compounds that act directly against DNA such as doxorubicin do however. […] (See FIG. 6).
# [3] = In vitro metabolism with mouse liver microsomes and mouse S9 fraction; format: in vitro ADME; conditions: compared with NUCC-176248
# Procedure: In vitro metabolism of NUCC-176242 and NUCC-176248 were tested using mouse liver microsomes and a mouse S9 fraction.
# [4] = Pharmacokinetics in mice after intravenous dosing; format: in vivo; conditions: 5 mg/kg intravenously
# Procedure: The pharmacokinetics of NUCC-176242 and NUCC-176248 were studied in mice by administering a dose of 5 mg/kg intravenously and measuring the plasma concentration versus time.
# [5] = tested on: wild type and Myc knockout rat fibroblasts; test: Growth inhibition on wild type and Myc knockout rat fibroblasts; format: cell-based; conditions: FIG. 3; for selectivity of growth inhibition for Myc WT over Myc KO cells: wild type vs Myc knockout rat fibroblasts
# Text: We tested the top 13 active compounds in the first screen assay. […] More than half of the tested compounds show better growth inhibitory effect on Myc WT compared to Myc KO cells.
# Sequence of Myc/Max binding to DNA (P01106 whole entry): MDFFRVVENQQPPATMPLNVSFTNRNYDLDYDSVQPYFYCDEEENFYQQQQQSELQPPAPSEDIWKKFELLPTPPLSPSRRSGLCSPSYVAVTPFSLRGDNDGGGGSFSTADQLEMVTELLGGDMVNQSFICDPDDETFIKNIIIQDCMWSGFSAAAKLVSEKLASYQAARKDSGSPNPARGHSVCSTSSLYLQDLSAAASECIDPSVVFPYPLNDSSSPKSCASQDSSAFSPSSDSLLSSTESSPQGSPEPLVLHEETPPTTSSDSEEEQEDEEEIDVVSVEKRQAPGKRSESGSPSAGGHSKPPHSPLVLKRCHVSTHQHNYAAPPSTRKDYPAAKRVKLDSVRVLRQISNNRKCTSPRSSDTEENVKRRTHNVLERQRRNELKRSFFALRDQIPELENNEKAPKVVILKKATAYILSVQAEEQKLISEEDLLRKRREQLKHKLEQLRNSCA
Structure (SMILES),"remaining activity at 100 µM (Myc/Max binding to DNA; EMSA, 100 uM test compound)",remaining activity at 50 µM (Myc/Max binding to DNA; EMSA),other results
CCc1ccc(Oc2c[nH]nc2-c2ccc(OCc3cnn(-c4ccccc4)c3)cc2O)cc1 [NUCC-0176234],79%,–,"IC50 (Myc/Max binding to DNA): 123 µM; remaining activity at 200 µM (Myc/Max binding to DNA; EMSA): 10%; reduction of cell viability, WT vs KO line [1]: reduces cell viability much more in the WT line than the KO cells; DNA damage [2]: essentially no DNA damage"
CCc1ccc(Oc2c(-c3ccc(OCc4ccc(Cl)cc4)cc3O)n[nH]c2C(F)(F)F)cc1 [NUCC-0176242],36%,–,IC50 (Myc/Max binding to DNA): 89 µM; remaining activity at 200 µM (Myc/Max binding to DNA; EMSA): 2%; metabolism by mouse S9 fraction [3]: significantly metabolism by the mouse S9 fraction versus NUCC-176248; in vivo metabolism (plasma concentration versus time) [4]: correlated well with the observed in vitro metabolism
CCc1ccc(Oc2c(-c3ccc(OCc4ccc(Cl)cc4)cc3O)nn(C)c2C(F)(F)F)cc1 [NUCC-0176248],49%,–,"IC50 (Myc/Max binding to DNA): 96 µM; remaining activity at 200 µM (Myc/Max binding to DNA; EMSA): 6%; effective concentration (dose with the greatest selectivity, growth inhibition Myc WT vs KO) [5]: 6 µM; selectivity of growth inhibition for Myc WT over Myc KO cells [5]: high specificity; in vivo metabolism (plasma concentration versus time) [4]: correlated well with the observed in vitro metabolism"
CCc1ccc(Oc2c(-c3ccc(OCc4ccncc4)cc3O)n[nH]c2C(F)(F)F)cc1 [NUCC-0176250],–,–,"remaining activity at 200 µM (Myc/Max binding to DNA; EMSA): 57%; effective concentration (dose with the greatest selectivity, growth inhibition Myc WT vs KO) [5]: 50 µM; selectivity of growth inhibition for Myc WT over Myc KO cells [5]: great selectivity"
CCc1ccc(Oc2c(-c3ccc(O)cc3O)nn(C)c2C(F)(F)F)cc1 [compound 0200682],–,101%,"Bound DNA (%) (100uM) (Myc/Max binding to DNA; EMSA, 100 uM test compound): 95%"
CCc1ccc(Oc2c(-c3ccccc3O)n[nH]c2C(F)(F)F)cc1 [compound 0200683],20%,87%,–
CCc1ccc(Oc2c(-c3ccccc3O)nn(C)c2C(F)(F)F)cc1 [compound 0200684],101%,102%,–
Oc1ccccc1C1=NNC(c2ccccc2)C1 (centres unmarked) [compound 0200685],103%,102%,–
Oc1cc(OCc2ccc(Cl)cc2)ccc1-c1[nH]nc(C(F)(F)F)c1-c1ccc2c(c1)OCCO2 [compound 0200686],87%,98%,–
Cn1nc(C(F)(F)F)cc1-c1ccc(O)cn1 [compound 0200687],101%,100%,–
Cn1nc(C(F)(F)F)cc1-c1ccc(N)cn1 [compound 0200688],103%,102%,–
Cn1nc(C(F)(F)F)cc1-c1cnc(O)cn1 [compound 0200689],98%,98%,–
Cn1nc(C(F)(F)F)cc1-c1ccc(OCc2ccc(Cl)cc2)cn1 [compound 0200690],95%,98%,–
Cn1nc(C(F)(F)F)cc1-c1ccc(NCc2ccc(Cl)cc2)cn1 [compound 0200691],97%,94%,–
Cn1nc(C(F)(F)F)cc1-c1cnc(OCc2ccc(Cl)cc2)cn1 [compound 0200692],89%,97%,–
Oc1cc(Nc2ccc(Cl)c(Cl)c2)ccc1-c1cc(C(F)(F)F)[nH]n1 [compound 0200721],4%,87%,–
c1ccc(COc2ccccc2-c2nn[nH]c2-c2ccccc2)cc1 [compound 0200722],104%,–,–
Cn1nc(C(F)(F)F)c(-c2cc(C(F)(F)F)cc(C(F)(F)F)c2)c1-c1ccc(O)cc1O [compound 0200723],36%,88%,–
Cn1nc(-c2ccc(O)cc2O)c(-c2cc(C(F)(F)F)cc(C(F)(F)F)c2)c1C(F)(F)F [compound 0200724],105%,–,–
Cn1nc(C(F)(F)F)c(-c2ccc(C(F)(F)F)cc2)c1-c1ccc(OCc2ccc(Cl)cc2)cc1O [compound 0200726],92%,–,–
CCc1c(C(F)(F)F)n[nH]c1-c1ccc(OCc2ccc(Cl)cc2)cc1O [compound 0200739],78%,–,–
CCCc1c(C(F)(F)F)n[nH]c1-c1ccc(OCc2ccc(Cl)cc2)cc1O [compound 0200740],75%,93%,–
Cn1cc(C(F)(F)F)c(-c2ccc(OCc3ccc(Cl)cc3)cn2)n1 [compound 0200741],103%,–,–
Cn1cc(C(F)(F)F)c(-c2ccc(NCc3ccc(Cl)cc3)cn2)n1 [compound 0200742],99%,–,–
Cn1cc(C(F)(F)F)c(-c2ccc(OCc3ccc(Cl)cc3)cc2F)n1 [compound 0200743],101%,–,–
Cn1nc(C(F)(F)F)cc1-c1ccc(OCc2ccc(Cl)cc2)cc1Cl [compound 0200744],62%,–,–
Cn1nc(C(F)(F)F)cc1-c1ccc(OCc2ccc(Cl)cc2)cc1N [compound 0200745],105%,–,–
Cn1cc(-c2ccc(OCc3ccc(Cl)cc3)cc2N)c(C(F)(F)F)n1 [compound 0200746],101%,–,–
Cn1cc(C(F)(F)F)c(-c2cnc(OCc3ccc(Cl)cc3)cn2)n1 [compound 0200747],105%,–,–

# The next lines start with results.
"remaining activity at 100 µM (Myc/Max binding to DNA; EMSA, 100 uM test compound)",remaining activity at 50 µM (Myc/Max binding to DNA; EMSA),Structure (SMILES),other results
98%,–,Oc1cc(OCc2ccc(Cl)cc2)ccc1-c1n[nH]c(C(F)(F)F)c1-c1ccc(C(F)(F)F)cc1 [compound 0200725],–
99%,–,Cn1nc(-c2ccc(OCc3ccc(Cl)cc3)cc2O)c(-c2ccc(C(F)(F)F)cc2)c1C(F)(F)F [compound 0200727],–
89%,–,Oc1cc(OCc2ccc(Cl)cc2)ccc1-c1n[nH]c(C(F)(F)F)c1-c1ccc(C(F)(F)F)c(Cl)c1 [compound 0200728],–
43%,82%,Cn1nc(-c2ccc(OCc3ccc(Cl)cc3)cc2O)c(-c2ccc(C(F)(F)F)c(Cl)c2)c1C(F)(F)F [compound 0200729],–
77%,93%,Oc1cc(OCc2ccc(Cl)cc2)ccc1-c1n[nH]c(C(F)(F)F)c1-c1cccc(C(F)(F)F)c1 [compound 0200730],–
62%,77%,Cn1nc(-c2ccc(OCc3ccc(Cl)cc3)cc2O)c(-c2cccc(C(F)(F)F)c2)c1C(F)(F)F [compound 0200731],–
46%,89%,Oc1cc(OCc2ccc(Cl)cc2)ccc1-c1n[nH]c(C(F)(F)F)c1-c1ccc(Cl)c(C(F)(F)F)c1 [compound 0200732],–
97%,–,Cn1nc(-c2ccc(OCc3ccc(Cl)cc3)cc2O)c(-c2ccc(Cl)c(C(F)(F)F)c2)c1C(F)(F)F [compound 0200733],–
91%,–,Oc1cc(OCc2ccc(Cl)cc2)ccc1-c1n[nH]c(C(F)(F)F)c1-c1ccc(F)c(C(F)(F)F)c1 [compound 0200734],–
60%,84%,Cn1nc(C(F)(F)F)c(-c2ccc(F)c(C(F)(F)F)c2)c1-c1ccc(OCc2ccc(Cl)cc2)cc1O [compound 0200735],–
86%,–,Cn1nc(-c2ccc(OCc3ccc(Cl)cc3)cc2O)c(-c2ccc(F)c(C(F)(F)F)c2)c1C(F)(F)F [compound 0200736],–
76%,–,Oc1cc(OCc2ccc(Cl)cc2)ccc1-c1n[nH]c(C(F)(F)F)c1-c1ccc(C(F)(F)F)cc1Cl [compound 0200737],–
18%,91%,Cn1nc(C(F)(F)F)c(-c2ccc(C(F)(F)F)cc2Cl)c1-c1ccc(OCc2ccc(Cl)cc2)cc1O [compound 0200738],–
